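Five compound concentrations were applied to cells in 96-well plates for 48 hours; endpoints were derived by simple linear interpolation of the resulting dose-response curve. The concentration for 50% growth inhibition is given as GI50. TGI: concentration producing complete growth inhibition.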
Legend:
Assay in all cases: inhibition of tumour cell growth, NCI panel, 48 h
[1] = system: HCT-15 colon
[2] = system: NCI-H522 lung
[3] = system: NCI/ADR-RES ovarian
[4] = system: OVCAR-4 ovarian
[5] = system: PC-3 prostate
[6] = system: SF-539 CNS
[7] = system: U251 CNS
[8] = system: UO-31 renal
[9] = system: HL-60(TB) leukemia

Compound `O=Nc1ccc2ccccc2c1O` has a GI50 [1] of 10.2 µM, a TGI [1] of 30.8 µM and a GI50 [2] of 1.78 µM. For the same compound, the TGI [2] was 4.17 µM, the GI50 [3] was 2.62 µM and the TGI [3] was 8.22 µM. For the same compound, the GI50 [4] was 1.89 µM, the TGI [4] was 5.32 µM and the GI50 [5] was 2.61 µM. For the same compound, the TGI [5] was 11.9 µM, the GI50 [6] was 20.8 µM and the TGI [6] was 37.2 µM. The GI50 [7] was 3.11 µM, the TGI [7] was 9.46 µM and the GI50 [8] was 4.99 µM. It also gave a TGI [8] of 21.7 µM.

With `CC(=O)CCCCO` the TGI [1] was greater than 100 µM, the TGI [9] was greater than 100 µM and the TGI [2] was greater than 100 µM. It also gave a TGI [4] greater than 100 µM, a TGI [6] greater than 100 µM and a TGI [7] greater than 100 µM. It also gave a TGI [8] greater than 100 µM.

`COc1cccc(Cc2c3cc(OC)ccc3cc[n+]2C)c1` showed a TGI [1] greater than 100 µM, a TGI [2] of 92.3 µM and a TGI [4] greater than 100 µM. For the same compound, the TGI [7] was greater than 100 µM and the TGI [8] was greater than 100 µM.

With `COc1ccccc1NC(=O)C1=C(C)NC(C)=C(C(=O)Nc2ccccc2OC)C1c1ccc(C)cc1` the TGI [1] was greater than 100 µM, the TGI [2] was greater than 100 µM and the TGI [4] was greater than 100 µM. The TGI [6] was greater than 100 µM, the TGI [7] was greater than 100 µM and the TGI [8] was greater than 100 µM.

In the case of `CCOC(=O)C1SC(=Nc2ccc(Cl)c(Cl)c2)N=C1C` (stereo not drawn), the TGI [1] is reported as greater than 100 µM, the TGI [9] is reported as 59.7 µM and the TGI [2] is reported as greater than 100 µM. The TGI [4] was 62 µM, the TGI [6] was greater than 100 µM and the TGI [7] was greater than 100 µM. It also gave a TGI [8] greater than 100 µM.

Work on `C/C(=N\N=C(/[Se])N1CC2CCC(CC2)C1)c1ccccn1` yielded a TGI [1] of 2.06 µM, a TGI [9] of 0.489 µM and a TGI [2] of 0.615 µM. It also gave a TGI [4] of 2.56 µM, a TGI [5] of 1.26 µM and a TGI [6] of 1.2 µM. For the same compound, the TGI [7] was 1.51 µM and the TGI [8] was 1.9 µM.

For `Cc1ccc(-c2cc(C3=CC(=O)C=CC3=O)n(-c3ccc(S(N)(=O)=O)cc3)n2)cc1`, the GI50 [1] was 58.2 µM, the TGI [1] was greater than 100 µM and the GI50 [9] was 37.3 µM. For the same compound, the TGI [9] was greater than 100 µM, the GI50 [2] was 59.9 µM and the TGI [2] was greater than 100 µM. It also gave a GI50 [5] of 36.5 µM, a TGI [5] greater than 100 µM and a GI50 [7] of 42.4 µM. The TGI [7] was greater than 100 µM, the GI50 [8] was greater than 100 µM and the TGI [8] was greater than 100 µM.

`NC(N)=NNC(=O)CCCCCCCC(=O)NN=C(N)N` showed a TGI [1] of 34.1 µM, a TGI [9] greater than 100 µM and a TGI [4] greater than 100 µM. For the same compound, the TGI [6] was greater than 100 µM, the TGI [7] was greater than 100 µM and the TGI [8] was greater than 100 µM.

`O=C(CC(=O)N1N=C(N2c3ccccc3Sc3ccccc32)CC1c1ccccc1)Nc1ccc(Cl)cc1` (stereo not drawn) gave a TGI [1] greater than 100 µM, a TGI [4] greater than 100 µM and a TGI [6] greater than 100 µM. The TGI [7] was greater than 100 µM and the TGI [8] was greater than 100 µM.

`C=CCC(N[C@H](CO)c1ccccc1)c1cn(C(=O)OCC)c2ccccc12` (stereo partly drawn) gave a GI50 [1] of 18.6 µM, a TGI [1] of 39.4 µM and a GI50 [2] of 15.2 µM. It also gave a TGI [2] of 32.1 µM, a GI50 [3] of 15.9 µM and a TGI [3] of 32.4 µM. It also gave a GI50 [4] of 37.3 µM, a TGI [4] greater than 100 µM and a GI50 [5] of 23.2 µM. The TGI [5] was 69.3 µM, the GI50 [6] was 18.6 µM and the TGI [6] was 35.1 µM. It also gave a GI50 [7] of 17.8 µM, a TGI [7] of 33.2 µM and a GI50 [8] of 16.1 µM. It also gave a TGI [8] of 32.5 µM.

For `Nc1c(C(=O)Nc2ccccc2)[n+]([O-])c2ccccc2[n+]1[O-]`, the TGI [1] was 28.2 µM, the TGI [9] was 90.8 µM and the TGI [2] was 4.4 µM. It also gave a TGI [4] of 33.5 µM, a TGI [6] of 37.3 µM and a TGI [7] of 26.3 µM. It also gave a TGI [8] of 42 µM.

For `CC(C)(C)C(=O)ON1N=NC2C3CC(OCc4ccccc4)(OCc4ccccc4)C(O3)C21` (stereo not drawn), the TGI [1] was 56.3 µM, the TGI [9] was 19 µM and the TGI [4] was 82.4 µM. The TGI [6] was 31 µM, the TGI [7] was 31.4 µM and the TGI [8] was 49.7 µM.

In the case of `O=C1c2c(n(Cc3ccccc3)c(=O)n2Cc2ccccc2)C(=O)N1Cc1ccccc1`, the TGI [1] is reported as greater than 100 µM, the TGI [9] is reported as greater than 100 µM and the TGI [2] is reported as greater than 100 µM. For the same compound, the TGI [4] was greater than 100 µM, the TGI [6] was greater than 100 µM and the TGI [7] was greater than 100 µM. For the same compound, the TGI [8] was greater than 100 µM.

Compound `O=C(OCC1CO1)c1cccs1` (stereo not drawn) has a TGI [1] greater than 100 µM, a TGI [9] greater than 100 µM and a TGI [2] of 36.9 µM. It also gave a TGI [4] greater than 100 µM and a TGI [8] greater than 100 µM.

For `CCOC(=O)C(=Cc1ccc(C(=O)OC)cc1)C(=O)OCC`, the TGI [1] was 6.76 µM, the TGI [9] was 4.36 µM and the TGI [2] was 2.8 µM. It also gave a TGI [4] of 14 µM, a TGI [6] of 3.17 µM and a TGI [7] of 4.77 µM.

`Cc1cc(=O)oc2cc(OCc3c(F)cccc3Cl)ccc12` was tested, and the TGI [9] was greater than 100 µM, the TGI [2] was greater than 100 µM and the TGI [4] was greater than 100 µM. The TGI [5] was greater than 100 µM, the TGI [6] was 48.7 µM and the TGI [7] was 30.1 µM. It also gave a TGI [8] greater than 100 µM.

In the case of `COc1ccc(-n2c3c(c4c(CN5CCOCC5)c(O)ccc42)CCc2ccccc2C3=O)cc1`, the GI50 [1] is reported as greater than 100 µM, the TGI [1] is reported as greater than 100 µM and the GI50 [9] is reported as 22.3 µM. The TGI [9] was greater than 100 µM, the GI50 [2] was 7.28 µM and the TGI [2] was 63.2 µM. It also gave a GI50 [3] of 25 µM, a TGI [3] of 88.9 µM and a GI50 [5] of 16.9 µM. The TGI [5] was greater than 100 µM, the GI50 [6] was 61 µM and the TGI [6] was greater than 100 µM. The GI50 [7] was 85.7 µM, the TGI [7] was greater than 100 µM and the GI50 [8] was greater than 100 µM. For the same compound, the TGI [8] was greater than 100 µM.

In the case of `CO[C@@H]1CC(=O)C2(CC(=O)O[C@@H]2/C=C(\C)CCC=C(C)C)C[C@@H]1O` (stereo partly drawn), the GI50 [1] is reported as 0.56 µM, the TGI [1] is reported as 1.55 µM and the GI50 [9] is reported as 0.409 µM. The TGI [9] was 2.32 µM, the GI50 [2] was 1.82 µM and the TGI [2] was greater than 50 µM. For the same compound, the GI50 [3] was 0.487 µM, the TGI [3] was 1.51 µM and the GI50 [5] was 0.378 µM. The TGI [5] was 1.44 µM, the GI50 [6] was 0.502 µM and the TGI [6] was 1.56 µM. The GI50 [7] was 0.672 µM, the TGI [7] was 1.4 µM and the GI50 [8] was 1.19 µM.

`Cc1ccc(SC2=CC(=O)c3nc4ccccc4c4ccnc2c34)cc1` was tested, and the GI50 [1] was 18.4 µM, the TGI [1] was 40.6 µM and the GI50 [2] was 16.3 µM. For the same compound, the TGI [2] was 38.4 µM, the GI50 [3] was 27.9 µM and the TGI [3] was greater than 95.4 µM. The GI50 [4] was 17.4 µM, the TGI [4] was 32.6 µM and the GI50 [5] was 22 µM. For the same compound, the TGI [5] was 71.2 µM, the GI50 [6] was 33.9 µM and the TGI [6] was 83 µM. The GI50 [7] was 30.2 µM, the TGI [7] was greater than 100 µM and the GI50 [8] was 15.5 µM. For the same compound, the TGI [8] was 29.7 µM.
